Measurements reported in EP0326331B1, “Substituted quinolines and cinnolines” (Dow AgroSciences LLC, priority 1988, dated 1989).
Read-outs that look alike come from different tables or passages of the source.

Assays:
Format in all cases: in vivo
[1] = system: Erysiphe graminis tritici (powdery mildew); test: Test 1 greenhouse foliar spray screen, powdery mildew on wheat; conditions: for POWD MDEW: disease control rating, foliar spray on wheat, 400 ppm (+++ at 100 ppm); for pest or weed control at 400 ppm: Blumeria graminis, foliar, Test 1, foliar spray on wheat, disease control rating at 400 ppm / 100 ppm, read-out: POWD MDEW
[2] = system: Pyricularia oryzae (rice blast); test: whole plant or invertebrate; conditions: for RICE BLAST: disease control rating, foliar spray on rice, 400 ppm (+++ at 100 ppm); for pest or weed control at 400 ppm: Pyricularia oryzae, foliar, read-out: RICE BLAST, Test 1, foliar spray on rice, disease control rating at 400 ppm / 100 ppm
[3] = system: Puccinia recondita tritici (leaf rust); test: Test 1 greenhouse foliar spray screen, leaf rust on wheat; conditions: for LEAF RUST: disease control rating, foliar spray on wheat, 400 ppm (+++ at 100 ppm); for pest or weed control at 400 ppm: Puccinia recondita, foliar, Test 1, foliar spray on wheat, disease control rating at 400 ppm / 100 ppm
[4] = system: Botrytis cinerea (gray mold); test: Test 1 greenhouse foliar spray screen, gray mold on grape berries; conditions: for GRAY MOLD: disease control rating, spray on grape berries, 400 ppm (+++ at 100 ppm); for pest or weed control at 400 ppm: Botrytis cinerea, foliar, Test 1, spray on grape berries, disease control rating at 400 ppm / 100 ppm
[5] = system: Pseudoperonospora cubensis (downy mildew); test: Test 1 greenhouse foliar spray screen, downy mildew on squash; conditions: for DOWN MDEW: disease control rating, foliar spray on squash, 400 ppm (+++ at 100 ppm); for pest or weed control at 400 ppm: Pseudoperonospora cubensis, foliar, Test 1, foliar spray on squash, disease control rating at 400 ppm / 100 ppm, read-out: DOWN MDEW
plant pathogens = test: Fungicidal efficacy against a broad spectrum of plant pathogens (summary of screen); conditions: summary statement in the description
[6] = system: southern armyworm (Spodopetra eridania Cramer); test: Mite/insect screen, SAW; conditions: Spodoptera eridania, percent mortality, read-out: SAW RESULTS %
Procedure, shortened: (§1)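 Formulation: acetone/alcohol 50:50 + sulfonate/nonionic emulsifiers, water-diluted to indicated concs. Spray both leaf surfaces to runoff, 10 psi; dry 1 h. Armyworm: 2 excised uninfested leaves in Petri dish. Score % mortality after standard exposure.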

[7] = system: Twospotted spider mites (Tetranychus urticae Koch); test: Mite/insect screen, SM; conditions: for mortality at 200 ppm / mortality at 400 ppm: Tetranychus urticae, percent mortality, read-out: SM RESULTS %
Procedure, shortened: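 Compounds dissolved in 50:50 acetone/alcohol containing sulfonate/nonionic emulsifier blends, then diluted with water to the indicated concentrations. Leaves sprayed on both surfaces to runoff at 10 psi and dried one hour. Percent mortality scored after standard exposure periods.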

[8] = system: melon aphids (Aphis gossypii Glover); test: Mite/insect screen, MA; conditions: Aphis gossypii, percent mortality, read-out: MA RESULTS %
Procedure, shortened: as §1

corn rootworm = test: Mite/insect screen, CRW; conditions: percent mortality, read-out: CRW RESULTS %
Procedure, shortened: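 Percent mortality is evaluated once the standard exposure period ends. Test material is applied as a water dilution of an acetone/alcohol (50:50) stock carrying two sulfonate/nonionic emulsifiers (23 and 13 g per liter).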

[9] = foliar, rate 400 ppm, foliar spray on squash
[10] = foliar, rate 200 ppm, foliar spray on squash

| SMILES | POWD MDEW [1] | RICE BLAST [2] | LEAF RUST [3] | GRAY MOLD [4] | DOWN MDEW [5] | activity against a broad spectrum of plant pathogens (plant pathogens) | mortality at 400 ppm ([6]; SAW, SM & MA RATE 400 PPM) [%] | mortality at 400 ppm ([7]; SAW, SM & MA RATE 400 PPM) [%] | mortality at 400 ppm ([8]; SAW, SM & MA RATE 400 PPM) [%] | mortality at 24 ppm (corn rootworm; CRW RATE 24.00 PPM) [%] | pest or weed control at 400 ppm [1] [%] | pest or weed control at 400 ppm [2] [%] | pest or weed control at 400 ppm [3] [%] | pest or weed control at 400 ppm [4] [%] | pest or weed control at 400 ppm [5] [%] | mortality at 400 ppm [6, 9] [%] | mortality at 400 ppm [7, 9] [%] | mortality at 400 ppm [8, 9] [%] | mortality at 24 ppm (corn rootworm; CRW rate 24.00 ppm) [%] | further results |
| --- | --- | --- | --- | --- | --- | --- | --- | --- | --- | --- | --- | --- | --- | --- | --- | --- | --- | --- | --- | --- |
| Fc1cccc2c(NCCc3cccc(Oc4ccccc4)c3)ccnc12 [Example 39, 8-fluoro-N-[2-(3-phenoxyphenyl)ethyl]-4-quinolinamine] | +++ (90-100% control at 100 ppm) | +++ (90-100% control at 100 ppm) | +++ (90-100% control at 100 ppm) | - (0-19% control at 400 ppm) | +++ (90-100% control at 100 ppm) | particularly excellent activity | 0 | 0 | 0 | 0 |  |  |  |  |  |  |  |  |  | mortality at 200 ppm ([6]; SAW, SM & MA RATE 200 PPM): 0%; mortality at 200 ppm ([7]; SAW, SM & MA RATE 200 PPM): 0%; mortality at 200 ppm ([8]; SAW, SM & MA RATE 200 PPM): 0%; mortality at 12 ppm (corn rootworm; CRW RATE 12.00 PPM): 0% |
| Fc1cccc2c(NCCc3cccc(-c4ccccc4)c3)ccnc12 [Example 72, N-[2-(1,1'-biphenyl)-3-ylethyl]-8-fluoro-4-quinolinamine] | ++ (90-100% control at 400 ppm) | +++ (90-100% control at 100 ppm) | +++ (90-100% control at 100 ppm) | - (0-19% control at 400 ppm) | +++ (90-100% control at 100 ppm) | particularly excellent activity | 0 | 0 | 0 | 0 |  |  |  |  |  |  |  |  |  |  |
| Fc1cccc2c(OCCc3ccccc3C(F)(F)F)ccnc12 [Example 206, 8-fluoro-4-[2-(2-(trifluoromethyl)phenyl)ethoxy]quinoline] |  |  |  |  |  | particularly excellent activity |  |  |  |  | 90 to 100 | 90 to 100 | 90 to 100 | 0 to 19 | 90 to 100 | 0 | 0 | 0 | 0 |  |
| Cc1cccc(CCOc2ccnc3c(F)cccc23)c1 [Example 224, 8-fluoro-4-[2-(3-methylphenyl)ethoxy]quinoline] |  |  |  |  |  | particularly excellent activity |  |  |  |  | 90 to 100 | 90 to 100 | 90 to 100 | 0 to 19 | 90 to 100 | 0 | 0 | 0 | 0 |  |
| Fc1ccccc1CCOc1ccnc2c(F)cccc12 [Example 225, 8-fluoro-4-[2-(2-fluorophenyl)ethoxy]quinoline] |  |  |  |  |  | particularly excellent activity |  |  |  |  | 90 to 100 | 90 to 100 | 90 to 100 | 0 to 19 | 90 to 100 | 0 | 0 | 0 | 0 |  |
| CC(C)c1ccc(CCOc2ccnc3c(F)cccc23)cc1 [Example 238, 8-fluoro-4-[2-(4-(i-propyl)phenyl)ethoxy]quinoline] |  |  |  |  |  | particularly excellent activity |  |  |  |  | 90 to 100 | 90 to 100 | 90 to 100 | 20 to 89 | 90 to 100 | 100 | 0 | 0 | 0 | mortality at 200 ppm [6, 10]: 0%; mortality at 200 ppm [7, 10]: 100%; activity as miticides ([7]; summary statement in the description): particularly excellent activity; mortality at 200 ppm [8, 10]: 100%; mortality at 12 ppm (corn rootworm; CRW rate 12.00 ppm): 0% |
